In patent US20100204119A1, “4-AMINO-5-OXO-7,8-DIHYDROPYRIMIDO[5,4-F][1,4]OXAZEPIN-6(5H)-YL PHENYL DERIVATIVES” (Pfizer Inc, priority 2009, published 2010):

Target: T1, Human full-length diacylglycerol:acylCoA acyltransferase 1 (DGAT-1) (Homo sapiens, UniProt O75907)
T1 sequence (O75907 1-488): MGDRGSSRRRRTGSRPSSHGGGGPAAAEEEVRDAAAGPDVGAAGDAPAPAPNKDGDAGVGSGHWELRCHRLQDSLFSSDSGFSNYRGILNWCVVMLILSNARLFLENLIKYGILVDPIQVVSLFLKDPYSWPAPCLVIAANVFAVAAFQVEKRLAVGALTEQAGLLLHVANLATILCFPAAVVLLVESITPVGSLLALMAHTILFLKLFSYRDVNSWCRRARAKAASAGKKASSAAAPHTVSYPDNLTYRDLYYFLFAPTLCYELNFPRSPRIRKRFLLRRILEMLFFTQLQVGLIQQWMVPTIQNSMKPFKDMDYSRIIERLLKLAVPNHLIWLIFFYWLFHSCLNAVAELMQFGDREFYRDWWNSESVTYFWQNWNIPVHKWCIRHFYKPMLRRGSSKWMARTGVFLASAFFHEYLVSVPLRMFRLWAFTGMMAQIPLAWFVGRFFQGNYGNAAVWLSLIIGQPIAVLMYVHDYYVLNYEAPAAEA
Assay: In vitro assay for inhibition of DGAT-1 activity (DGAT 1 Reduced Microsome Multidose Assay)
Details: average where n > 1

[1] = Trial 2 Human IC50, Trial 2: as Trial 4 except eleven concentrations of inhibitor instead of eight
[2] = Trial 3 Human IC50, Trial 3: as Trial 2 except compounds serially diluted in a different laboratory
[3] = Trial 1 Human IC50, Trial 1: as Trial 4 except microsomes at 25 μg/mL instead of 5 μg/mL
[4] = Trial 4 Human IC50, Trial 4: eight concentrations of inhibitor, microsomes 5 μg/mL

Method: Human full-length diacylglycerol:acylCoA acyltransferase 1 (DGAT-1) was expressed in Sf9 insect cells which are then lysed and a crude membrane fraction (105,000×g pellet) was prepared.
Inhibitors in DMSO were pre-incubated with membranes before initiating the DGAT-1 reaction by the addition of decanoylCoA. […] The inhibitors were present at a range of eight concentrations to generate an apparent IC50 for each compound. […] Specifically, the eight concentrations used were 3 μM, 1 μM, 300 nM, 100 nM, 30 nM, 10 nM, 3 nM and 1 nM.
The reactions were allowed to proceed for 1.5 hours at room temperature and then terminated by the addition of 20 μl of EDTA (40 mM). Reaction mixture is then mixed by trituration with 30 μl of Microscint™-E (Perkin Elmer). […] Four separate trials were conducted. The method of analysis of Trial 1 was the same as Trial 4 (described above) except microsomes were utilized at 25 μg/mL instead of 5 μg/mL. The method of analysis of Trial 2 was the same as Trial 4 (described above) except eleven (11) concentrations of inhibitor were employed instead of eight (8). The method of analysis of Trial 3 was the same as Trial 2 except the compounds were serially diluted in a different laboratory.
Where this DGAT-1 inhibition assay was performed on a compound more than once, an average is provided for that compound.

Row | SMILES | IC50 [3] | IC50 [4] | other results
1 | CS(=O)(=O)CC(=O)N1CCC(c2ccc(N3CCOc4ncnc(N)c4C3=O)cc2)CC1 [Example 7T] |  |  | IC50 [1]: 0.123 µM; IC50 [2]: 0.217 µM
2 | CC(O)C1CCN(C(=O)C[C@H]2CC[C@H](c3ccc(N4CCOc5ncnc(N)c5C4=O)cc3)CC2)CC1 (stereo partly drawn) [Example 6P] | 0.0393 µM |  | 
3 | Nc1ncnc2c1C(=O)N(c1ccc([C@H]3CC[C@H](CC(=O)N4CCC(CO)C4)CC3)cc1)CCO2 (stereo partly drawn) [Example 6T] | 0.125 µM |  | 
4 | CN(C(=O)C[C@H]1CC[C@H](c2ccc(N3CCOc4ncnc(N)c4C3=O)cc2)CC1)C1CCOCC1 [Example 6H] | 0.0535 µM |  | 
5 | Nc1ncnc2c1C(=O)N(c1ccc([C@H]3CC[C@H](CC(=O)N4CCNC(=O)C4)CC3)cc1)CCO2 [Example 6AX] | 0.123 µM |  | 
6 | C[C@@H]1CN(c2ccc([C@H](O)C(C)(C)C)cc2)C(=O)c2c(N)ncnc2O1 [Example 1AD] |  | 0.0226 µM | 
7 | C[C@@H]1CN(c2ccc(C(C)(C)C)cc2)C(=O)c2c(N)ncnc2O1 [Example 1I, (8R)-4-amino-6-(4-tert-butylphenyl)-8-methyl-7,8-dihydropyrimido[5,4-f]-[1,4]oxazepin-5(6H)-one] |  | 0.0163 µM | IC50 [1]: 0.0184 µM; IC50 [2]: 0.0337 µM
8 | Nc1ncnc2c1C(=O)N(c1ccc([C@H]3CC[C@H](CC(=O)N4CCNC(=O)CC4)CC3)cc1)CCO2 [Example 6AL] | 0.105 µM |  | 
9 | CN(C)C(=O)CN(C)C(=O)C[C@H]1CC[C@H](c2ccc(N3CCOc4ncnc(N)c4C3=O)cc2)CC1 [Example 6AT] | 0.161 µM |  | 
10 | CC(C)(O)CC[C@H]1CC[C@H](c2ccc(N3CCOc4ncnc(N)c4C3=O)cc2)CC1 [Example 1A-1] | 0.104 µM |  | 
11 | Nc1ncnc2c1C(=O)N(c1ccc([C@H]3CC[C@H](CC(=O)N4CCC4)CC3)cc1)CCO2 [Example 6AW] | 0.0732 µM |  | 
12 | C[C@@H]1CN(c2ccc([C@@H](O)C(C)(C)C)cc2)C(=O)c2c(N)ncnc2O1 [Example 1AC] |  | 0.0554 µM | 
13 | Cc1cc(C(=O)N2CCC(c3ccc(N4CCOc5ncnc(N)c5C4=O)cc3)CC2)no1 [Example 7V] |  |  | IC50 [1]: 0.113 µM; IC50 [2]: 0.224 µM
14 | Nc1ncnc2c1C(=O)N(c1ccc(C3CCN(C(=O)Cc4ccccc4)CC3)cc1)CCO2 [Example 7Y] |  |  | IC50 [1]: 0.0457 µM; IC50 [2]: 0.0986 µM
15 | C[C@@H]1CN(c2ccc3c(c2)CCC3)C(=O)c2c(N)ncnc2O1 [Example 1S] |  | < 0.0107 µM | 
16 | CN(Cc1ccc(F)cc1)C(=O)C[C@H]1CC[C@H](c2ccc(N3CCOc4ncnc(N)c4C3=O)cc2)CC1 [Example 6AK] | 0.0181 µM |  | 
17 | Nc1ncnc2c1C(=O)N(c1ccc([C@H]3CC[C@H](CCC(=O)N4CCOCC4)CC3)cc1)CCO2 [Example 6BF] | 0.0601 µM |  | 
18 | CCN(Cc1nccn1C)C(=O)C[C@H]1CC[C@H](c2ccc(N3CCOc4ncnc(N)c4C3=O)cc2)CC1 [Example 6AS] | 0.0474 µM |  | 
19 | COC(C)(C)Cc1ccc(N2C[C@@H](C)Oc3ncnc(N)c3C2=O)cc1 [Example 1AG] |  | 0.0452 µM | 
20 | Nc1ncnc2c1C(=O)N(c1ccc([C@H]3CC[C@H](CCO)CC3)cc1)CCO2 [Example 1E, 4-amino-6-{4-[trans-4-(2-hydroxyethyl)cyclohexyl]phenyl}-7,8-dihydropyrimido[5,4-f][1,4]oxazepin-5(6H)-one] |  |  | IC50 [1]: 0.0141 µM; IC50 [2]: 0.00975 µM
21 | CN(CCc1ccccn1)C(=O)C[C@H]1CC[C@H](c2ccc(N3CCOc4ncnc(N)c4C3=O)cc2)CC1 [Example 6W] | 0.0777 µM |  | 
22 | C[C@@H]1CN(c2ccc(CC(C)(C)O)cc2)C(=O)c2c(N)ncnc2O1 [Example 1AN] |  | 0.104 µM | 
23 | Nc1ncnc2c1C(=O)N(c1ccc([C@H]3CC[C@H](CC(=O)N4CCC[C@@H](O)C4)CC3)cc1)CCO2 [Example 6O] | 0.162 µM |  | 
24 | CCc1ccc(N2C[C@@H](C)Oc3ncnc(N)c3C2=O)cc1 [Example 1M, (8R)-4-amino-6-(4-ethylphenyl)-8-methyl-7,8-dihydropyrimido[5,4-f]-[1,4]oxazepin-5(6H)-one] |  | 0.0137 µM | 
25 | CC(C)c1ccc(N2C[C@@H](C)Oc3ncnc(N)c3C2=O)cc1 [Example 1K, (8R)-4-amino-6-(4-isopropylphenyl)-8-methyl-7,8-dihydropyrimido[5,4-f]-[1,4]oxazepin-5(6H)-one] |  | 0.0176 µM | 
26 | Nc1ncnc2c1C(=O)N(c1ccc(C3CCN(C(=O)CC4CCCOC4)CC3)cc1)CCO2 (stereo not drawn) [Example 7E] |  |  | IC50 [1]: 0.196 µM; IC50 [2]: 0.3 µM
27 | C[C@@H]1CN(c2ccc(C(O)(C(F)(F)F)C(F)(F)F)cc2)C(=O)c2c(N)ncnc2O1 [Example 1V] |  | 0.0395 µM | 

Row | SMILES | IC50 [3] | IC50 [4] | other results
28 | Nc1ncnc2c1C(=O)N(c1ccc([C@H]3CC[C@H](CC(=O)N4CCCCC4CCO)CC3)cc1)CCO2 (stereo partly drawn) [Example 6AY] | 0.0853 µM |  | 
29 | CN(CC1COCCO1)C(=O)C[C@H]1CC[C@H](c2ccc(N3CCOc4ncnc(N)c4C3=O)cc2)CC1 (stereo partly drawn) [Example 6AF] | 0.0828 µM |  | 
30 | Nc1ncnc2c1C(=O)N(c1ccc([C@H]3CC[C@H](CC(=O)N4CC(F)C4)CC3)cc1)CCO2 [Example 6AM] | 0.139 µM |  | 
31 | Cc1ocnc1C(=O)N1CCC(c2ccc(N3CCOc4ncnc(N)c4C3=O)cc2)CC1 [Example 7G] |  |  | IC50 [1]: 0.0882 µM; IC50 [2]: 0.29 µM
32 | CCOC(C)(C)c1ccc(N2C[C@@H](C)Oc3ncnc(N)c3C2=O)cc1 [Example 1AK, (8R)-4-amino-6-[4-(1-ethoxy-1-methylethyl)phenyl]-8-methyl-7,8-dihydropyrimido[5,4-f][1,4]oxazepin-5(6H)-one] |  | 0.0423 µM | 
33 | C[C@@H]1CN(c2ccc(C3(C(N)=O)CCC3)cc2)C(=O)c2c(N)ncnc2O1 [Example 1AH, 1-{4-[(8R)-4-amino-8-methyl-5-oxo-7,8-dihydropyrimido[5,4-f][1,4]oxazepin-6(5H)-yl]phenyl}cyclobutanecarboxamide] |  | 0.0782 µM | 
34 | CCCN(CCO)C(=O)C[C@H]1CC[C@H](c2ccc(N3CCOc4ncnc(N)c4C3=O)cc2)CC1 [Example 6AJ] | 0.0655 µM |  | 
35 | CC1(O)CCN(C(=O)C[C@H]2CC[C@H](c3ccc(N4CCOc5ncnc(N)c5C4=O)cc3)CC2)CC1 [Example 6AP] | 0.107 µM |  | 
36 | C[C@@H]1CN(c2ccc([C@H]3C[C@@H](O)C3)cc2)C(=O)c2c(N)ncnc2O1 [Example 1Q] |  | 0.0765 µM | 
37 | Nc1ncnc2c1C(=O)N(c1ccc(C3CCN(C(=O)C4CCCOC4)CC3)cc1)CCO2 (stereo not drawn) [Example 7Z] |  |  | IC50 [1]: 0.105 µM; IC50 [2]: 0.134 µM
38 | CC(C)(C#N)c1ccc(N2CCOc3ncnc(N)c3C2=O)cc1 [Example 1F, 2-[4-(4-amino-5-oxo-7,8-dihydropyrimido[5,4-f][1,4]oxazepin-6(5H)-yl)phenyl]-2-methylpropanenitrile] | 2.12 µM |  | IC50 [1]: 1.29 µM; IC50 [2]: 2.66 µM
39 | Nc1ncnc2c1C(=O)N(c1ccc(C3CCN(C(=O)CC4CCOCC4)CC3)cc1)CCO2 [Example 7O] |  |  | IC50 [1]: 0.138 µM; IC50 [2]: 0.374 µM
40 | C[C@H](O)CC(=O)N1CCC(c2ccc(N3CCOc4ncnc(N)c4C3=O)cc2)CC1 [Example 7D] |  |  | IC50 [1]: 0.0982 µM; IC50 [2]: 0.267 µM
41 | C[C@@H]1CN(c2ccc(C3(C(N)=O)CCCC3)cc2)C(=O)c2c(N)ncnc2O1 [Example 1AF, 1-{4-[(8R)-4-amino-8-methyl-5-oxo-7,8-dihydropyrimido[5,4-f][1,4]oxazepin-6(5H)-yl]phenyl}cyclopentanecarboxamide] |  | 0.117 µM | 
42 | CC(C)(C)OC(=O)N1CCC(c2ccc(N3CCOc4ncnc(N)c4C3=O)cc2)CC1 [Example 7B] |  |  | IC50 [1]: 0.0551 µM; IC50 [2]: 0.03 µM
43 | Cc1cc(CN(C)C(=O)C[C@H]2CC[C@H](c3ccc(N4CCOc5ncnc(N)c5C4=O)cc3)CC2)ccn1 [Example 6AZ] | 0.067 µM |  | 
44 | C[C@@H]1CN(c2ccc(C3(O)CCCCC3)cc2)C(=O)c2c(N)ncnc2O1 [Example 1AJ] |  | 0.0356 µM | 
45 | Nc1ncnc2c1C(=O)N(c1ccc(C3CCN(C(=O)CC4CCCO4)CC3)cc1)CCO2 (stereo not drawn) [Example 7R] |  |  | IC50 [1]: 0.0501 µM; IC50 [2]: 0.17 µM
46 | N#CC1CCCN(C(=O)C[C@H]2CC[C@H](c3ccc(N4CCOc5ncnc(N)c5C4=O)cc3)CC2)C1 (stereo partly drawn) [Example 6AO] | 0.04 µM |  | 
47 | C[C@@H]1CN(c2ccc(C(C)(C)C(=O)O)cc2)C(=O)c2c(N)ncnc2O1 [Example 1AO, 2-{4-[(8R)-4-amino-8-methyl-5-oxo-7,8-dihydropyrimido[5,4-f][1,4]oxazepin-6(5H)-yl]phenyl}-2-methylpropanoic acid] |  | 0.02 µM | 
48 | CCC1(CO)CCN(C(=O)C[C@H]2CC[C@H](c3ccc(N4CCOc5ncnc(N)c5C4=O)cc3)CC2)C1 (stereo partly drawn) [Example 6R] | 0.0175 µM |  | 
49 | CC(c1ccncc1)N(C)C(=O)C[C@H]1CC[C@H](c2ccc(N3CCOc4ncnc(N)c4C3=O)cc2)CC1 (stereo partly drawn) [Example 6AU] | 0.0755 µM |  | 
50 | Nc1ncnc2c1C(=O)N(c1ccc(C3CCN(C(=O)C4CCCO4)CC3)cc1)CCO2 (stereo not drawn) [Example 7X] |  |  | IC50 [1]: 0.0884 µM; IC50 [2]: 0.157 µM
51 | CN(CC1CCOCC1)C(=O)C[C@H]1CC[C@H](c2ccc(N3CCOc4ncnc(N)c4C3=O)cc2)CC1 [Example 6D] | 0.103 µM |  | 
52 | CO[C@@H]1CCN(C(=O)C[C@H]2CC[C@H](c3ccc(N4CCOc5ncnc(N)c5C4=O)cc3)CC2)C1 [Example 6BA] | 0.0601 µM |  | 
53 | C[C@@H]1CN(c2ccc(C(C)(C)O)cc2)C(=O)c2c(N)ncnc2O1 [Example 1A-2, (8R)-4-amino-6-(4-(2-hydroxypropan-2-yl)phenyl)-8-methyl-7,8-dihydropyrimido[5,4-f][1,4]oxazepin-5(6H)-one] |  | 0.0614 µM | 
